This passage reports IC50 and EC50 results from patent publication US20240116946A1 (Gilead Sciences, Inc., priority 2022, published 2024).

Test [1] addresses recombinant SARS-CoV-2 Main protease (Mpro) (Severe acute respiratory syndrome coronavirus 2 (2019-nCoV) (SARS-CoV-2), UniProt P0DTD1). As to the kind of experiment: Cov Mpro Biochemical IC50 Assay. The conditions noted are these: read-out: MPro IC50.
Test [2] has as its system SARS-CoV-2-NLuc. As to the kind of experiment: microbe, parasite or virus in culture. Format: cell-based, SARS Coronavirus 2.
Where [3] appears, read: recombinant SARS-CoV-2 Mpro 7.5 nM, fluorogenic peptide substrate 40 μM.
Setting [4] is: Severe acute respiratory syndrome coronavirus, 48 h; read-out: MPro EC50.
The mark [5] stands for this setting: Severe acute respiratory syndrome coronavirus, 48 h, read-out: MPro EC50.
Where [6] appears, read: recombinant SARS-CoV-2 Mpro, fluorogenic peptide substrate.

Where two headings read alike, the source gives them in different places.

A word on the IC50: it is the concentration needed to halve the response being measured. A word on the EC50: it is the concentration needed to bring the measured effect to its halfway point.

Turning to `COc1cc(-c2cc3[nH]c(=O)n(-c4nncc5ccccc45)c(=O)c3s2)c(Cl)cc1F` [Example 744], the IC50 in test [1] (setting [3]) worked out at 21.7 nM. Besides, the EC50 in test [2] (setting [4]) stood at 85 nM.
The like results for `COc1cc(-c2cc3c(s2)c(=O)n(-c2cc(C)cnn2)c(=O)n3CCC#N)c(C#N)cc1F` [Example 812] were, in that order, 8.87 nM and 89 nM.
On to `COc1cc(-c2cc3c(s2)c(=O)n(-c2cncc4ccccc24)c(=O)n3CC2(C#N)CCC2)c(Cl)cc1F` [Example 690], for which the IC50 in test [1] (setting [3]) was determined as 47 nM. The EC50 in test [2] (setting [5]) was 98.8 nM.
As to `NC(=O)c1ccccc1-c1ccc2c(=O)n(-c3cncc4ccccc34)c(=O)[nH]c2c1` [Example 66, 2-(3-(isoquinolin-4-yl)-2,4-dioxo-1,2,3,4-tetrahydroquinazolin-7-yl)benzamide], the IC50 in test [1] (setting [6]) turned out to be 2010 nM. The EC50 in test [2] (setting [5]) is more than 50000 nM.
On the same counts, the results for `O=c1[nH]c2cc(-c3c(Cl)cccc3-c3cn(CCO)nn3)ccc2c(=O)n1-c1cncc2ccccc12` [Example 293] are 67.8 nM and 748 nM.
Take `COc1ccc(Cl)c(-c2cc3[nH]c(=O)n(-c4cncc5ccccc45)c(=O)c3s2)c1` (single isomer, unassigned) [Example 466, 6-(2-chloro-5-methoxyphenyl)-3-(isoquinolin-4-yl)thieno[3,2-d]pyrimidine-2,4(1H,3H)-dione]: the IC50 in test [1] (setting [3]) was found to be 156 nM. In test [2] (read-out: MPro EC50), the EC50 turned out to be 152 nM.
For the compound `Cc1cncc(-n2c(=O)c3sc(-c4ccccc4Cl)cc3n(CCC#N)c2=O)n1` [Example 833], the IC50 in test [1] (setting [3]) worked out at 16 nM. In addition, the EC50 in test [2] (setting [5]) is 49.7 nM.
Take `Cc1noc(C)c1-c1cccc(Cl)c1-c1cc2[nH]c(=O)n(-c3cncc4ccccc34)c(=O)c2s1` [Example 355]: the IC50 in test [1] (setting [6]) stood at 9.64 nM. In test [2] (setting [5]), the EC50 worked out at 22.9 nM.
Take `Cc1cncc(-n2c(=O)c3sc(-c4cc(F)ccc4C#N)cc3n(CCC#N)c2=O)c1` [Example 881]: the IC50 in test [1] (setting [3]) came out at 11.7 nM. In addition, in test [2] (setting [4]), the EC50 worked out at 91.9 nM.
Take `O=c1[nH]c2cc(-c3ccccc3Cl)sc2c(=O)n1-c1cncc2c(Cl)cccc12` [Example 592]: the IC50 in test [1] (setting [3]) is more than 50000 nM. Moreover, the EC50 in test [2] (setting [5]) came to 39500 nM.
The like results for `COc1cc(C#N)c(-c2cc3c(s2)c(=O)n(-c2cncc4cnn(C)c24)c(=O)n3CCC#N)cc1F` [Example 795] were, in that order, 20 nM and 86.7 nM.
The like results for `COc1cc(-c2cc3c(s2)c(=O)n(-c2cncc4nnn(C)c24)c(=O)n3CC2(C#N)CC2)c(Cl)cc1F` [Example 688] were, in that order, 9.78 nM and 14.5 nM.
As to `O=c1[nH]c2cc(-c3ccccc3Cl)sc2c(=O)n1-c1cncc(C2CCC2)c1` [Example 379], in test [1] (setting [6]), the IC50 is 436 nM. The EC50 in test [2] (setting [4]) is 186 nM.
For the compound `COc1ccc(C#N)c(-c2cc3[nH]c(=O)n(-c4cncc5c(Cl)cccc45)c(=O)c3s2)c1` [Example 594], in test [1] (setting [3]), the IC50 amounted to 883 nM. The EC50 in test [2] (setting [5]) amounted to 929 nM.
On to `COc1cncc(-c2cccc(Cl)c2-c2ccc3c(=O)n(-c4cncc5ccccc45)c(=O)[nH]c3c2)c1` [Example 199], for which the IC50 in test [1] (setting [6]) is 19.3 nM. In addition, the EC50 in test [2] (setting [5]) is 25.4 nM.
With `COc1cc(-c2cc3c(s2)c(=O)n(-c2cncc4cnn(C)c24)c(=O)n3CC2(C#N)CC2)c(Cl)cc1F` [Example 643, 1-[[6-(2-chloro-4-fluoro-5-methoxy-phenyl)-3-(1-methylpyrazolo[4,3-c]pyridin-7-yl)-2,4-dioxo-thieno[3,2-d]pyrimidin-1-yl]methyl]cyclopropanecarbonitrile], the 50% inhibitory concentration (IC50) in test [1] (setting [3]) is less than 4.05 nM. For the same compound, the EC50 in test [2] (setting [4]) is 1.14 nM.
As for `COc1cc(-c2cc(OC)c3c(=O)n(-c4cncc5ccccc45)c(=O)[nH]c3c2)c(C#N)cc1F` [Example 680], the IC50 in test [1] (setting [3]) came to 21.7 nM. Also, the EC50 in test [2] (read-out: MPro EC50) came to 20.8 nM.
For the compound `Cc1c(C2CC2)cncc1-n1c(=O)[nH]c2cc(-c3ccccc3Cl)sc2c1=O` [Example 377], the IC50 in test [1] (setting [6]) is more than 50000 nM. Besides, the EC50 in test [2] (setting [5]) came out at 6230 nM.
